Assay results published in the NIST ThermoML archive (doi:10.1021/je101316g).

Key:
[1] = refractive index (Na D-line) (dimensionless); conditions: 101.33 kPa, Liquid, Standard Abbe refractometry
[2] = 101.33 kPa, Liquid; for mass density: Vibrating tube method

CCCCCCn1cc[n+](CCC#N)c1.O=S(=O)([O-])C(F)(F)F
Conditions	mass density, [2] [kg/m3]	refractive index, [1]	viscosity, [2] [mPa·s]
293.15 K	1289.6	–	2243.6
298.15 K	1285.7	1.52975	1469.7
303.15 K	1281.9	1.52891	991.9
308.15 K	1278.3	1.52774	648.5
313.15 K	1274.6	1.52683	437.8
318.15 K	1271	1.5259	301.9
323.15 K	1267.4	1.52464	214
328.15 K	1263.8	1.52334	155.1
333.15 K	1260.2	1.52226	102.7
338.15 K	1256.6	–	77.4
343.15 K	1253.1	–	54.8
348.15 K	1249.2	–	40.1
353.15 K	1245.8	–	29.4

CCCCCCn1cc[n+](CCC#N)c1.O=C([O-])c1cccc(S(=O)(=O)O)c1 [3-(2-cyanoethyl)-1-hexyl-1H-imidazolium 3-sulfobenzoate]
Conditions	mass density, [2] [kg/m3]	refractive index, [1]	viscosity, [2] [mPa·s]
293.15 K	1248.1	–	19212
298.15 K	1244.6	1.52295	11463
303.15 K	1241.2	1.52221	7578.3
308.15 K	1238	1.52146	4765.8
313.15 K	1234.7	1.52029	3001.1
318.15 K	1231.5	1.51936	1953.3
323.15 K	1228.2	1.518	1189.9
328.15 K	1225	1.51666	830.5
333.15 K	1221.8	1.51502	557.3
338.15 K	1218.6	–	352.1
343.15 K	1215.4	–	225.5
348.15 K	1212.1	–	133.6
353.15 K	1208.9	–	92.8

CCCCC(CC)COC(=O)CC(C(=O)OCC(CC)CCCC)S(=O)(=O)[O-].CCCCCC[n+]1ccn(CCC#N)c1 (stereo not drawn)
Conditions	mass density, [2] [kg/m3]	refractive index, [1]	viscosity, [2] [mPa·s]
293.15 K	1092.7	–	–
298.15 K	1089	1.4797	19896
303.15 K	1085.4	1.47841	12117
308.15 K	1081.8	1.47709	7571.4
313.15 K	1078.3	1.4758	4586.7
318.15 K	1074.8	1.47447	2939.5
323.15 K	1071.3	1.47305	1947.7
328.15 K	1067.9	1.47171	1264.7
333.15 K	1064.4	1.47029	848.3
338.15 K	1061	–	579.4
343.15 K	1057.6	–	411.4
348.15 K	1054.2	–	278.6
353.15 K	1050.7	–	191.2

CCCCCCCCCCCCOS(=O)(=O)[O-].CCCCCCn1cc[n+](CCC#N)c1 [3-(2-cyanoethyl)-1-hexyl-1H-imidazolium dodecyl sulfate]
Conditions	mass density, [2] [kg/m3]	refractive index, [1]	viscosity, [2] [mPa·s]
293.15 K	1101.1	–	–
298.15 K	1097.8	1.48409	13770
303.15 K	1094.5	1.48269	8252.7
308.15 K	1091.2	1.48125	5185.2
313.15 K	1088	1.47991	3354.6
318.15 K	1084.7	1.47863	2051
323.15 K	1081.5	1.47702	1301.8
328.15 K	1078.3	1.47566	846.3
333.15 K	1075.1	1.47422	566.9
338.15 K	1071.9	–	390.1
343.15 K	1068.8	–	274.9
348.15 K	1065.6	–	189.5
353.15 K	1062.6	–	133.6

CCCCCCn1cc[n+](CCC#N)c1.O=S(=O)([O-])c1ccccc1 [3-(2-cyanoethyl)-1-hexyl-1H-imidazolium benzenesulfonate]
Conditions	mass density, [2] [kg/m3]	refractive index, [1]	viscosity, [2] [mPa·s]
293.15 K	1226	–	7079.4
298.15 K	1222.7	1.527	4268.1
303.15 K	1219.4	1.5261	2865.6
308.15 K	1216.1	1.52499	1795.1
313.15 K	1212.8	1.52382	1170.4
318.15 K	1209.6	1.52266	781.3
323.15 K	1206.3	1.52145	537.6
328.15 K	1203	1.52025	359.9
333.15 K	1199.7	1.51899	274.2
338.15 K	1196.5	–	181
343.15 K	1193.3	–	133.6
348.15 K	1190.1	–	94.6
353.15 K	1187.8	–	70
